These are literature values, as cited in patent publication US20140248600A1, “BLOOD TREATMENT APPARATUS ADAPTED TO PRESERVE PARTS THEREOF” (Gambro Lundia AB, priority 2011, published 2014).

The data set relates to C. albicans. The conditions noted are these: resulting pH: acetic acid 3.6; citric acid 2.4; succinic acid 2.8; tartaric acid 2.3; fumaric acid 2.6; maleic acid 2.0; control pH 5.5.
For `CC(=O)O` [acetic acid], the “Growth of C. albicans with acid added to the medium” value (from here on “Growth of C. albicans”) is given as “grew as well as the control”.

On to `O=C(O)CC(O)(CC(=O)O)C(=O)O` [citric acid], for which the “Growth of C. albicans” value is “grew as well as the control”.

`O=C(O)/C=C/C(=O)O` [fumaric]: the “Growth of C. albicans” value is listed as “inhibition of growth”.

Turning to `O=C(O)/C=C\C(=O)O` [maleic acid], the “Growth of C. albicans” value is listed as “inhibition of growth”.

In the case of `O=C(O)CCC(=O)O` [succinic acid], the “Growth of C. albicans” value is “grew as well as the control”.

With `O=C(O)C(O)C(O)C(=O)O` (stereo not drawn) [tartaric acid], the “Growth of C. albicans” value is “grew as well as the control”.
